# In patent US20190029928A1, “Fibrous Structures Comprising Malodor Reduction Compositions” (The Procter & Gamble Company, priority 2017, published 2019):
# “And” between values parts separate entries of the source, which are not always exact repeats. Equal entries are not always repeated. Where two headings read alike, the source gives them in different places.
# Description: The first step in the method for assigning a BI to a test sample material on the BI reference scale is to create the BI reference swatches. […] Fabric swatches for this test are white knit polycotton (4 inch×4 inch) swatches from EMC ordered as PC 50/50. The supplier is instructed to strip the swatches first, stripping involves washing twice with a fragrance-free detergent and rinsing three times.
# Making the BI Reference Swatches
# The BI scale contains one clean swatch with no malodor applied. […] These solutions are pipetted to the middle of the swatches. […] After drying for 30 minutes in a vented hood, the swatches are wrapped in aluminum foil to prevent odor contamination to the treated swatch. A clean untreated swatch is also included as the lowest anchor point of reference for malodor strength on the BI scale. The BI reference scale swatches should be used within 0.5 to 12 hours and discarded after 12 hours. The swatches are used as scale anchor points when graders evaluate a test sample(s) and are assigned a Blocker Index (BI) as show in Table 11 below.
# The perfumer/expert grader is asked to rank order swatches according to a scale between 0 and 3.
structure (smiles),measurement,setting,value
CC(C)CC(=O)O [isovaleric acid],BI rank Ave,"2 μL 0.08% isovaleric acid, all graders (Table 11)",1.0
same,BI rank by individual expert grader,stripped swatch with 2 μL 0.08% isovaleric acid,0.5 and 2.0 and 1.0
same,BI rank by individual expert grader,stripped swatch with 5 μL 0.08% isovaleric acid,2.0 and 2.5
same,BI rank by individual expert grader,stripped swatch with 20 μL 0.08% isovaleric acid,3.0 and 2.5
